The results in this text go back to patent US10053416B1, “Process for producing long chain amino acids and dibasic acids” (VITAWORKS IP, LLC, priority 2017, dated 2018).

Molecules are shown by their SMILES. Counter-ions that a name gives are not always drawn.

Series [1] can be described thus: Solubility curve in 5% aqueous solution of ammonium hydroxide (FIG. 4). In kind it is physicochemical. The following applies: as a function of temperature (FIG. 4). The source says: FIG. 4. Solubility curve of 11-aminoundecanoic acid and dodecanedioic acid in 5% aqueous solution of ammonium hydroxide.
In one embodiment of the present invention, schematically illustrated in FIG. 1, the solution or suspension is further cooled to crystallize the long chain amino acid, which can be recovered by means of solid-liquid separation to provide a mother liquor containing the ammonium or alkylamine salts of long chain dibasic acid and alkanoic acid. […] The three components in the mother liquor, i.e., alkylamine, dodecanedioic acid, and alkanoic acid, can be separated according to one of the following three methods.

Series [2] is described as follows: Solubility / phase separation observation in water and aqueous salt solutions. In kind it is physicochemical. The procedure: If there are long chain fatty acids present in the starting material, these fatty acids are precipitated as the ammonium salt, along with the long chain amino acid. In the production of 11-aminoundecanoic acid and dodecanedioic acid from the starting material of castor oil, significant amount of stearic acid is present in the mixed amide derivatives. […] If ammonia or ammonium hydroxide is used as the basic agent to neutralize sulfuric acid, and after more basic agent is added to the mother liquor to a basic pH, alkylamine can only be recovered by extraction. Distillation of the basic solution will remove ammonia instead of alkylamine. […] No phase separation is observed between hexylamine and a solution of ammonium sulfate.

Take `NCCCCCCCCCCC(=O)O` [11-aminoundecanoic acid]: the Solubility entry in series [1] is recorded as “nearly insoluble”. The same measure, in the same setting: the same measure for `O=C(O)CCCCCCCCCCC(=O)O` [ammonium salt of dodecanedioic acid, dodecanedioic acid]: “soluble and becomes more soluble as temperature increases”. With `CCCCCCN` [hexylamine], the Solubility result was “insoluble” in series [2] (in a solution of alkali salt); “freely soluble” in series [2] (in a solution of ammonium salt, i.e., ammonium sulfate); “insoluble” in series [2] (in water).
